Measurements from ChEMBL document CHEMBL1201862, “PubChem BioAssay data set” (2004).
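Test compounds were applied to cells in 96-well plates for 48 hours at 5 doses. Here, GI50 denotes the concentration required for 50% inhibition of growth.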 The source made the active and inactive calls. No stated cut-off is given here; in the data, active = GI50 up to about 1.1 µM and inactive = higher.

Experiments:
Experiment in all cases: DTP human tumour cell line panel, 48 h
[1] = test system: NCI-H522
[2] = test system: MDA-MB-435
[3] = test system: A498
[4] = test system: MDA-N
[5] = test system: NCI/ADR-RES
[6] = test system: OVCAR-8
[7] = test system: SK-MEL-2
[8] = test system: UACC-257
[9] = test system: NCI-H23
[10] = test system: CAKI-1
[11] = test system: MDA-MB-231
[12] = test system: HL-60
[13] = test system: LOX IMVI
[14] = test system: SK-MEL-5
[15] = test system: MOLT-4
[16] = test system: SNB-19
[17] = test system: OVCAR-5
[18] = test system: HT-29
[19] = test system: CCRF-CEM
[20] = test system: DU-145

Structure (SMILES)	GI50 [1]	GI50 [2]	GI50 [3]	GI50 [4]	GI50 [5]	GI50 [6]	GI50 [7]	GI50 [8]	GI50 [9]	GI50 [10]	GI50 [11]	GI50 [12]	GI50 [13]	GI50 [14]	GI50 [15]	GI50 [16]	GI50 [17]	GI50 [18]	GI50 [19]	GI50 [20]
Cc1cc(C)c(S(=O)(=O)N2CCCN(S(=O)(=O)c3c(C)cc(C)cc3C)OCCCO2)c(C)c1	> 100 µM (inactive)	> 100 µM (inactive)	> 100 µM (inactive)	> 100 µM (inactive)	> 100 µM (inactive)	> 100 µM (inactive)	> 100 µM (inactive)	45.9 µM (inactive)	75.5 µM (inactive)	> 100 µM (inactive)	> 100 µM (inactive)	> 100 µM (inactive)	> 100 µM (inactive)	> 100 µM (inactive)	> 100 µM (inactive)	> 100 µM (inactive)	> 100 µM (inactive)	> 100 µM (inactive)	> 100 µM (inactive)	> 100 µM (inactive)
CCOC(=O)C1C(c2ccc(O)c(OC)c2)c2c(n[nH]c2O)CC1(C)O (stereo not given)	> 100 µM (inactive)	> 100 µM (inactive)	> 100 µM (inactive)	> 100 µM (inactive)	> 100 µM (inactive)	> 100 µM (inactive)	> 100 µM (inactive)	> 100 µM (inactive)	> 100 µM (inactive)	> 100 µM (inactive)	> 100 µM (inactive)	> 100 µM (inactive)	> 100 µM (inactive)	> 100 µM (inactive)	> 100 µM (inactive)	> 100 µM (inactive)	> 100 µM (inactive)	> 100 µM (inactive)	> 100 µM (inactive)	> 100 µM (inactive)
O=C(/C=C/c1ccccc1)CCN1CCN(CCC(=O)/C=C/c2ccccc2)CC1	13.2 µM (inactive)	3.72 µM (inactive)	18.9 µM (inactive)	2.19 µM (inactive)	24.7 µM (inactive)	16.3 µM (inactive)	17.9 µM (inactive)	11.5 µM (inactive)	16 µM (inactive)	17.2 µM (inactive)	5.5 µM (inactive)	3.64 µM (inactive)	2.38 µM (inactive)	14.7 µM (inactive)	4.47 µM (inactive)	17.6 µM (inactive)	16.7 µM (inactive)	14.3 µM (inactive)	3.29 µM (inactive)	17.6 µM (inactive)
CCCCCCCCCCCCN(CC(O)C(O)C(OC1OC(CO)C(O)C(O)C1O)C(O)CO)C(=O)CCCCCCCCCCC (stereo not given)	24.1 µM (inactive)	16.8 µM (inactive)	24.7 µM (inactive)	21 µM (inactive)	23.8 µM (inactive)	23 µM (inactive)	23 µM (inactive)	20.9 µM (inactive)	21.4 µM (inactive)	19 µM (inactive)	22.6 µM (inactive)	33.7 µM (inactive)	21.3 µM (inactive)	17.5 µM (inactive)	25.1 µM (inactive)	17.9 µM (inactive)	41 µM (inactive)	19 µM (inactive)	31.9 µM (inactive)	20.6 µM (inactive)
CCOC(=O)N1CCC2(CC1)C[C@](Sc1ccccc1)(C(C)=O)[C@H](C)O2	> 100 µM (inactive)	> 100 µM (inactive)	> 100 µM (inactive)	53.5 µM (inactive)	> 100 µM (inactive)	> 100 µM (inactive)	> 100 µM (inactive)	> 100 µM (inactive)	> 100 µM (inactive)	> 100 µM (inactive)	> 100 µM (inactive)	> 100 µM (inactive)	> 100 µM (inactive)	> 100 µM (inactive)	> 100 µM (inactive)	> 100 µM (inactive)	> 100 µM (inactive)	> 100 µM (inactive)	12.1 µM (inactive)	> 100 µM (inactive)
CC(C)NC(=O)OCc1c(COC(=O)NC(C)C)c(-c2ccc[n+](COC(=O)CC(C)(C)C)c2)n2c1CCC2	31.6 µM (inactive)	> 100 µM (inactive)	> 100 µM (inactive)	> 100 µM (inactive)	71 µM (inactive)	81.3 µM (inactive)	> 100 µM (inactive)	> 100 µM (inactive)	48.6 µM (inactive)	38.5 µM (inactive)	> 100 µM (inactive)	> 100 µM (inactive)	78.3 µM (inactive)	> 100 µM (inactive)	> 100 µM (inactive)	> 100 µM (inactive)	> 100 µM (inactive)	> 100 µM (inactive)	> 100 µM (inactive)	> 100 µM (inactive)
O=C1OC(OC/C(Br)=C(\Br)COC2OC(=O)C(Cl)=C2Cl)C(Cl)=C1Cl (stereo not given)	1.71 µM (inactive)	7.24 µM (inactive)	19.5 µM (inactive)	3.65 µM (inactive)	4.92 µM (inactive)	2.4 µM (inactive)	19.5 µM (inactive)	9.68 µM (inactive)	3.18 µM (inactive)	2.26 µM (inactive)	4.74 µM (inactive)	0.324 µM (active)	2.58 µM (inactive)	8.83 µM (inactive)	0.807 µM (active)	17.1 µM (inactive)	12.9 µM (inactive)	2.55 µM (inactive)	0.659 µM (active)	15.1 µM (inactive)
OCC(O)CNc1ncnc2ccccc12 (stereo not given)	> 100 µM (inactive)	> 100 µM (inactive)	> 100 µM (inactive)	> 100 µM (inactive)	> 100 µM (inactive)	> 100 µM (inactive)	> 100 µM (inactive)	> 100 µM (inactive)	> 100 µM (inactive)	> 100 µM (inactive)	> 100 µM (inactive)	> 100 µM (inactive)	> 100 µM (inactive)	> 100 µM (inactive)	> 100 µM (inactive)	> 100 µM (inactive)	> 100 µM (inactive)	> 100 µM (inactive)	> 100 µM (inactive)	> 100 µM (inactive)
CC1=CC23C(COC(=O)C24CO4)C(C(=O)O)=CC3C1C (stereo not given)	1.37 µM (inactive)	23.1 µM (inactive)	23.3 µM (inactive)	24 µM (inactive)	15.3 µM (inactive)	15.9 µM (inactive)	3.08 µM (inactive)	29 µM (inactive)	27.1 µM (inactive)	9.79 µM (inactive)	10.9 µM (inactive)	15 µM (inactive)	17 µM (inactive)	25.2 µM (inactive)	17.4 µM (inactive)	5.33 µM (inactive)	24.4 µM (inactive)	16.2 µM (inactive)	5.86 µM (inactive)	28.1 µM (inactive)
Nc1nc(N)c2cc(-c3ccccc3)cnc2n1	21.6 µM (inactive)	> 10 µM (inactive)	14.9 µM (inactive)	9.86 µM (inactive)	24.4 µM (inactive)	15.4 µM (inactive)	33 µM (inactive)	14.2 µM (inactive)	12.9 µM (inactive)	16 µM (inactive)	7.89 µM (inactive)	13.3 µM (inactive)	12.4 µM (inactive)	10 µM (inactive)	9.89 µM (inactive)	18.2 µM (inactive)	14.6 µM (inactive)	8.55 µM (inactive)	20.1 µM (inactive)	> 10 µM (inactive)
O=C(O)c1ccccc1Sc1ccccc1[N+](=O)[O-]	> 100 µM (inactive)	> 100 µM (inactive)	> 100 µM (inactive)	> 100 µM (inactive)	> 100 µM (inactive)	> 100 µM (inactive)	> 100 µM (inactive)	> 100 µM (inactive)	> 100 µM (inactive)	> 100 µM (inactive)	> 100 µM (inactive)	> 100 µM (inactive)	> 100 µM (inactive)	> 100 µM (inactive)	> 100 µM (inactive)	> 100 µM (inactive)	> 100 µM (inactive)	> 100 µM (inactive)	> 100 µM (inactive)	> 100 µM (inactive)
COc1cccc(N2C(=O)CS(=O)(=O)C2c2cccc(Oc3ccccc3)c2)c1 (stereo not given)	6.53 µM (inactive)	3.56 µM (inactive)	10.1 µM (inactive)	2.38 µM (inactive)	9.42 µM (inactive)	21.6 µM (inactive)	14.2 µM (inactive)	15.3 µM (inactive)	23.4 µM (inactive)	26.1 µM (inactive)	30.4 µM (inactive)	11 µM (inactive)	17.1 µM (inactive)	7.11 µM (inactive)	21.3 µM (inactive)	27.1 µM (inactive)	34 µM (inactive)	13.1 µM (inactive)	26.9 µM (inactive)	38.5 µM (inactive)
N#Cc1ccc(C2ON=C(c3ccccc3)N2C23CC4CC(CC(C4)C2)C3)cc1 (stereo not given)	> 10 µM (inactive)	> 10 µM (inactive)	> 10 µM (inactive)	> 10 µM (inactive)	0.00536 µM (active)	> 10 µM (inactive)	> 10 µM (inactive)	> 10 µM (inactive)	> 10 µM (inactive)	> 10 µM (inactive)	> 10 µM (inactive)	4.05 µM (inactive)	> 10 µM (inactive)	> 10 µM (inactive)	9.66 µM (inactive)	> 10 µM (inactive)	> 10 µM (inactive)	> 10 µM (inactive)	> 10 µM (inactive)	> 10 µM (inactive)
Cc1cc(C)c2c(O)cc(-c3cccc(F)c3)nc2n1	0.03 µM (active)	< 0.01 µM (active)	0.274 µM (active)	0.0116 µM (active)	0.0422 µM (active)	0.261 µM (active)	0.098 µM (active)	10.4 µM (inactive)	0.294 µM (active)	0.0536 µM (active)	0.42 µM (active)	0.0312 µM (active)	0.191 µM (active)	0.0422 µM (active)	0.22 µM (active)	0.136 µM (active)	0.399 µM (active)	0.0405 µM (active)	0.172 µM (active)	0.215 µM (active)
